Experimental data reported in patent US20250320215A1, “SALTS OF N-[4-(4-[[2-(DIMETHYLAMINO)ETHYL]AMINO]-3-METHYL-1H-PYRAZOLO[3,4-D]PYRIMIDIN-6-YL)-2-FLUOROPHENYL]-2,5-DIFLUOROBENZENESULFONAMIDE AND CRYSTALLINE FORMS THEREOF” (THRYV THERAPEUTICS INC, priority 2022, published 2025).
Where two headings read alike, the source gives them in different places. Blank lines part the entries; values can stand above or below the molecule they belong to.

Experiments:
Format in all cases: physicochemical
[1] = Water activity study (competition of forms, XRPD); conditions: for XPRD results, Form: room temperature
Method: Water activity study was performed using Compound 3 Form B (anhydrate) as the input material in EtOH/Water with different water content at RT. About 5 mg of Compound 3, Form B was used to prepare saturated solutions and the solutions were filtered by syringe at RT. 5 mg of Compound 3, Form D were added in the 1 mL of filtrate, and the suspension was slurried at RT for 3 and 7 days. The solids collected after filtration were analyzed by XRPD.
Protocol: excess amount of Compound 4 Form B was used to prepare saturated solutions. 6-8 mg each of Compound 4 Form B and Form D were added in the solutions. The suspension was slurried at room temperature for the corresponding times. Residual solids were collected by filtration with syringe filter, and characterized by XRPD.

[2] = Estimated solubility by solvent addition method via visual assessment; conditions: thermodynamic from solid, read-out: Solubility, Concentration
Method: Solubility of Compound 3 Form B was estimated in 30 solvents at room temperature and in 9 organic solvents at 70° C. using solvent addition method via visual assessment.
Protocol: about 3 mg of Compound 3 Form B was weighed into a sample vial and the solvent was added gradually with vortex until the drug solution was clear by observation or a total of 2 mL solvent was added. Then, the estimated solubility (mg/mL) was calculated.
Solubility of Compound 4, Form B was estimated in 18 solvents at room temperature using solvent addition method via visual assessment. About 3 mg of Compound 4, Form B was weighed into a sample vial and the solvent was added gradually with vortex until the solution was clear by observation or a total of 2 mL solvent was added. Then, the estimated solubility (mg/mL) was calculated.

[3] = Slurry study evaluated by XRPD
Method: About 20 mg of Compound 3, Form B was weighed into a sample vial and then 1 mL of solvent was added to make a suspension. The suspension was stirred at room temperature or 50° C. for 3 days and 11 days. Then, the wet solid was collected by filtration and analyzed by XRPD.
20-30 mg of Compound 4 Form B was added in 1 mL of selected solvents at room temperature or 50° C. The suspension was slurried at room temperature or 50° C. for 3 days and 11 days. The wet solids collected from filtration were examined by XRPD. There were four crystal forms obtained by slurrying, including di-mesylate Forms B, C and D as well as mono-mesylate Form G.

[4] = Thermal treatment (heat-cool cycle by DSC, XRPD of resulting solids)
Method: Compound 3, Form E was treated with heat-cool cycle by DSC. The resulted solids were characterized by XRPD. Compound 3, Form E, was converted to Compound 3, Form D after desolvation.
Compound 4 Form B was treated with heat-cool cycle by DSC. The resulted solids were checked by XRPD. […] The water was excluded at elevated temperature, then entered in the crystal lattice again at room temperature.
Compound 4 Form C and trace Form B was treated with heat-cool cycle by DSC. The resulted solids were checked by XRPD. The sample was converted to low crystalline (LC) Form B after heating to 175° C.
Compound 4 Form D was treated with heat-cool cycle by DSC. The resulted solids were checked by XRPD. The sample kept unchanged after heating to 140° C., but was converted to a new low crystalline form after heating to 210° C. which was assigned to Form F.

[5] = Competitive slurry experiment evaluated by XRPD
Text: Competitive slurry experiment for Compound 4 Form B and Form D Competitive slurry experiments of Compound 4 Form B and Form D were set up to verify the relative stability relationship. It was supposed that Form D was the stable form at high water activity, while Form B was stable at low water activity. All the solvents used was analytical grade and should contained trace amounts of water. […] The water activity at elevated temperature is lower than at low temperature. Therefore, Form B was obtained in ACN at 50° C., while Form D was the stable form at room temperature.

[6] = slurry at 50° C., printed at MeOH

- XPRD results 3 D/Wet, 7 D/Wet, 7 D/Dried ([1]; EtOH/Water 24.7/75.3 (V/%), aW 0.92, RT): Form D + extra peak
- XPRD results 3 D/Wet, 7 D/Wet, 7 D/Dried ([1]; EtOH/Water 58.1/41.9 (V/%), aW 0.82, RT): Form D + extra peak
- XPRD results 3 D/Wet, 7 D/Wet, 7 D/Dried ([1]; EtOH/Water 82.9/17.1 (V/%), aW 0.64, RT): Form D
- XPRD results 3 D/Wet, 7 D/Wet, 7 D/Dried ([1]; EtOH/Water 92.8/7.2 (V/%), aW 0.41, RT): Form D
- XPRD results 3 D/Wet, 7 D/Wet, 7 D/Dried ([1]; EtOH/Water 97/3 (V/%), aW 0.21, RT): Form D
- XPRD results 3 D/Wet, 7 D/Wet, 7 D/Dried ([1]; EtOH/Water 98.4/1.6 (V/%), aW 0.12, RT): Form D
SMILES: Cc1n[nH]c2nc(-c3ccc(NS(=O)(=O)c4cc(F)ccc4F)c(F)c3)nc(NCCN(C)C)c12.Cl [Compound 3 Form B + D]

- solubility ([2]; aqueous with cosolvent or surfactant or cyclodextrin, Acetone/Water (1/1), RT): < 1500 µg/mL
- solubility ([2]; organic solvent or mixture, 1,4-Dioxane, RT): < 1500 µg/mL
- solubility ([2]; organic solvent or mixture, 2-Me-THF, RT): < 1500 µg/mL
- solubility ([2]; organic solvent or mixture, ACN, RT): < 1500 µg/mL
- solubility ([2]; organic solvent or mixture, ACN/Water (9/1), RT): 1500 to 1700 µg/mL
- solubility ([2]; organic solvent or mixture, Acetic acid, 70° C.): < 1500 µg/mL
- solubility ([2]; organic solvent or mixture, Acetic acid, RT): < 1500 µg/mL
- solubility ([2]; organic solvent or mixture, Acetone, 70° C.): < 1500 µg/mL
- solubility ([2]; organic solvent or mixture, Acetone, RT): < 1500 µg/mL
- solubility ([2]; organic solvent or mixture, Acetone/MeOH (1/1), RT): 1500 to 1600 µg/mL
- solubility ([2]; organic solvent or mixture, Benzyl alcohol, 70° C.): < 1500 µg/mL
- solubility ([2]; organic solvent or mixture, Benzyl alcohol, RT): < 1500 µg/mL
- solubility ([2]; organic solvent or mixture, DCM, RT): < 1500 µg/mL
- solubility ([2]; organic solvent or mixture, DCM/MeOH (3/1), RT): < 1500 µg/mL
- solubility ([2]; organic solvent or mixture, DMA, 70° C.): 20000 to 40000 µg/mL
- solubility ([2]; organic solvent or mixture, DMA, RT): 3000 to 3300 µg/mL
- solubility ([2]; organic solvent or mixture, DMF, 70° C.): 16700 to 20000 µg/mL
- solubility ([2]; organic solvent or mixture, DMF, RT): 2000 to 3000 µg/mL
- solubility ([2]; organic solvent or mixture, DMSO, 70° C.): > 40000 µg/mL
- solubility ([2]; organic solvent or mixture, DMSO, RT): 5400 to 5500 µg/mL
- solubility ([2]; organic solvent or mixture, EA, RT): < 1500 µg/mL
- solubility ([2]; organic solvent or mixture, EtOH, 70° C.): < 1500 µg/mL
- solubility ([2]; organic solvent or mixture, EtOH, RT): < 1500 µg/mL
- solubility ([2]; organic solvent or mixture, IPA, RT): < 1500 µg/mL
- solubility ([2]; organic solvent or mixture, IPAC, RT): < 1500 µg/mL
- solubility ([2]; organic solvent or mixture, IPE, RT): < 1500 µg/mL
- solubility ([2]; organic solvent or mixture, MEK, RT): < 1500 µg/mL
- solubility ([2]; organic solvent or mixture, MIBK, RT): < 1500 µg/mL
- solubility ([2]; organic solvent or mixture, MTBE, RT): < 1500 µg/mL
- solubility ([2]; organic solvent or mixture, Me-cyclohexane, RT): < 1500 µg/mL
- solubility ([2]; organic solvent or mixture, MeOH, RT): < 1500 µg/mL
- solubility ([2]; organic solvent or mixture, MeOH/Water (9/1), RT): 2500 to 3000 µg/mL
- solubility ([2]; organic solvent or mixture, NMP, 70° C.): > 40000 µg/mL
- solubility ([2]; organic solvent or mixture, NMP, RT): 3000 to 3800 µg/mL
- solubility ([2]; organic solvent or mixture, THF, 70° C.): < 1500 µg/mL
- solubility ([2]; organic solvent or mixture, THF, RT): < 1500 µg/mL
- solubility ([2]; organic solvent or mixture, THF/Water (9/1), RT): 1600 to 1900 µg/mL
- solubility ([2]; organic solvent or mixture, n-Heptane, RT): < 1500 µg/mL
- solubility ([2]; Water, RT): < 1500 µg/mL
- XRPD Day 3/Wet [3, 6]: Form D
- XRPD Day 11/Wet [3, 6]: Form D
- XRPD Day 3/Wet ([3]; slurry at RT, 1,4-Dioxane 1 mL, cell apparently merged down for IPA, IPAC, MTBE, Water, n-Heptane, Acetone, EA, ACN, DCM, MIBK, MEK): Form D
- XRPD Day 3/Wet ([3]; slurry at RT, EtOH 1 mL): Form D
- XRPD Day 3/Wet ([3]; slurry at RT, MeOH 1 mL): Amorphous
- XRPD Day 3/Wet ([3]; slurry at RT, THF 1 mL): Amorphous
- XRPD Day 11/Wet ([3]; slurry at RT, printed at MeOH): Form D
SMILES: Cc1n[nH]c2nc(-c3ccc(NS(=O)(=O)c4cc(F)ccc4F)c(F)c3)nc(NCCN(C)C)c12.Cl [Compound 3 Form B]

- XRPD Resulting Form ([4]; Heated to 114° C. at 10° C./min, and cooled to 25° C. at 5° C./min): Form E
- XRPD Resulting Form ([4]; Heated to 160° C. at 10° C./min, and cooled to 25° C. at 5° C./min): Form D
SMILES: Cc1n[nH]c2nc(-c3ccc(NS(=O)(=O)c4cc(F)ccc4F)c(F)c3)nc(NCCN(C)C)c12.Cl [Compound 3 Form E]

- XRPD Resulting Form ([4]; Heated to 175° C. at 10° C./min, and cooled to 25° C. at 5° C./min): Form B (LC)
SMILES: Cc1n[nH]c2nc(-c3ccc(NS(=O)(=O)c4cc(F)ccc4F)c(F)c3)nc(NCCN(C)C)c12 [Compound 4 Form C + trace Form B]

- XPRD results, Form ([1]; ACN/water, aW 0.37, 8 d): Form D
- XPRD results, Form ([1]; ACN/water, aW 0.37, 14 d): Form D
- XPRD results, Form ([1]; ACN/water, aW 0.58, 8 d): Form D
- XPRD results, Form ([1]; ACN/water, aW 0.58, 14 d): Form D
- XPRD results, Form ([1]; ACN/water, aW 0.78, 8 d): Form D
- XPRD results, Form ([1]; ACN/water, aW 0.78, 14 d): Form D
- XPRD results, Form ([1]; ACN/water, aW 0.90, 8 d): Form D
- XPRD results, Form ([1]; ACN/water, aW 0.90, 14 d): Form D
- XPRD results, Form ([1]; MeOH/water, aW 0.08, 3 d): Forms B + D
- XPRD results, Form ([1]; MeOH/water, aW 0.08, 7 d): Form B
- XPRD results, Form ([1]; MeOH/water, aW 0.16, 3 d): Form D
- XPRD results, Form ([1]; MeOH/water, aW 0.16, 7 d): Form D
- Results 8 d (XRPD) ([5]; ACN, 50° C.): Form B
- Results 14 d (XRPD) ([5]; ACN, 50° C.): Form B
- Results 8 d (XRPD) ([5]; ACN, RT): Form B + Form D
- Results 14 d (XRPD) ([5]; ACN, RT): Form D
- Results 8 d (XRPD) ([5]; IPAC, 50° C.): Form D
- Results 14 d (XRPD) ([5]; IPAC, 50° C.): Form D
- Results 8 d (XRPD) ([5]; IPAC, RT): Form D
- Results 14 d (XRPD) ([5]; IPAC, RT): Form D
- Results 8 d (XRPD) ([5]; MeOH, 50° C.): Form B
- Results 14 d (XRPD) ([5]; MeOH, 50° C.): Form B
- Results 8 d (XRPD) ([5]; MeOH, RT): Form B
- Results 14 d (XRPD) ([5]; MeOH, RT): Form B
SMILES: Cc1n[nH]c2nc(-c3ccc(NS(=O)(=O)c4cc(F)ccc4F)c(F)c3)nc(NCCN(C)C)c12 [Compound 4 Forms B + D]
